Source: patent US3960877A, “N-monosubstituted-2,3-pyridinedicarboxamides, and related compounds” (priority 1974, dated 1976)

What was measured:
Type in all cases: in vivo
Nutgrass [1] = test: Preemergence herbicidal activity, % control of plant growth; conditions: pre-emergence, 504 h, 16 lb/acre, about 3 weeks
Excerpt: (§1) By "preemergence" is meant that the compound is applied to the soil prior to emergence of the weed species sought to be controlled. This term, as used herein, also means the application of the herbicidal compounds falling within the scope of this disclosure to areas wherein useful or desirable plants are either growing or have been sown, but where the undesirable plants sought to be controlled have not as yet emerged.
(§2) In using the compound, seeds of the types of plants set forth in Table II were sown in fresh soil. In the preemergence test the soil was sprayed with a solution of the test compound immediately after the seeds were planted, and before any noticeable growth developed. The solution was about a 2 percent by weight solution of the compound in acetone and/or alcohol. The compound was applied at the rate of 16 pounds per acre of soil surface.
(§3) Approximately 3 weeks after spray application, the herbicidal activity of the compound was determined by visual observation of the treated area in comparison with untreated control areas. These observations are reported below in Table II wherein the average activity rating is reported as the percent control of plant growth.
(§4) *Preemergence test: compound applied at rate of 16 lb/acre

Foxtail [2] = test: as above; conditions: Setaria, pre-emergence, 504 h, 16 lb/acre, about 3 weeks
Excerpt: as §1, §2, §3, §4

Curled Dock [3] = test: as above; conditions: for pest or weed control at 17933.6 g/ha: pre-emergence, 504 h, 16 lb/acre, about 3 weeks
Excerpt: as §1, §2, §3, §4

Chickweed [4] = test: as above; conditions: for pest or weed control at 17933.6 g/ha: pre-emergence, 504 h, 16 lb/acre, about 3 weeks
Excerpt: as §1, §2, §3, §4

Cucumber [5] = test: as above; conditions: for pest or weed control at 17933.6 g/ha: Cucumis sativus, pre-emergence, 504 h, 16 lb/acre, about 3 weeks
Excerpt: as §1, §2, §3, §4

Corn [6] = test: as above; conditions: for plant injury at 17933.6 g/ha: Zea mays, pre-emergence, 504 h, 16 lb/acre, about 3 weeks
Excerpt: as §1, §2, §3, §4

Johnsongrass [7] = test: as above; conditions: Sorghum halepense, pre-emergence, 504 h, 16 lb/acre, about 3 weeks
Excerpt: as §1, §2, §3, §4

Yellow Rocket [8] = test: as above; conditions: pre-emergence, 504 h, 16 lb/acre, about 3 weeks
Excerpt: as §1, §2, §3, §4

Cheatgrass [9] = test: as above; conditions: for pest or weed control at 17933.6 g/ha: Bromus tectorum, pre-emergence, 504 h, 16 lb/acre, about 3 weeks
Excerpt: as §1, §2, §3, §4

Pigweed [10] = test: as above; conditions: for pest or weed control at 17933.6 g/ha: Amaranthus retroflexus, pre-emergence, 504 h, 16 lb/acre, about 3 weeks
Excerpt: as §1, §2, §3, §4

Lambsquarters [11] = test: as above; conditions: for pest or weed control at 17933.6 g/ha: Chenopodium album, pre-emergence, 504 h, 16 lb/acre, about 3 weeks
Excerpt: as §1, §2, §3, §4

Alfalfa [12] = test: as above; conditions: for pest or weed control at 17933.6 g/ha: Medicago sativa, pre-emergence, 504 h, 16 lb/acre, about 3 weeks
Excerpt: as §1, §2, §3, §4

Barnyard Grass [13] = test: as above; conditions: Echinochloa crus-galli, pre-emergence, 504 h; barnyard grass; 16 lb/acre; about 3 weeks
Excerpt: as §1, §2, §3, §4

Wild Oats [14] = test: as above; conditions: Avena fatua, pre-emergence, 504 h, 16 lb/acre, about 3 weeks
Excerpt: as §1, §2, §3, §4

Crabgrass [15] = test: as above; conditions: for pest or weed control at 17933.6 g/ha: Digitaria sanguinalis, pre-emergence, 504 h, 16 lb/acre, about 3 weeks
Excerpt: as §1, §2, §3, §4

Snapbeans [16] = test: as above; conditions: for pest or weed control at 17933.6 g/ha: pre-emergence, 504 h, 16 lb/acre, about 3 weeks
Excerpt: as §1, §2, §3, §4

Velvetleaf [17] = test: as above; conditions: Abutilon theophrasti, pre-emergence, 504 h, 16 lb/acre, about 3 weeks
Excerpt: as §1, §2, §3, §4

Nutgrass [18] = test: Postemergence herbicidal activity, % control of plant growth; conditions: post-emergence, 264 h, 8 lb/acre, about 11 days
Excerpt: (§5) By the term "postemergence" is meant that the compound is applied to the plant sought to be controlled after it has emerged from the soil surface. This term is also used to describe the application of herbicidally active compounds to soil surface in and around growing plants sought to be controlled for purposes of effecting root absorption by the undesirable plant species.
(§6) In the postemergence test the soil and developing plants were sprayed approximately 2 weeks after the seeds were sown. The compound was applied at the rate of 8 pounds per acre from about a 2 percent by weight solution of the test compound in acetone and/or alcohol. The postemergence herbicidal activity was measured in the same way as the preemergence activity; i.e. visual observation approximately 11 days after spraying, and expressed as the percent control of plant growth.
(§7) **Postemergence test: compound applied at rate of 8 lb/acre

Foxtail [19] = test: as above; conditions: Setaria, post-emergence, 264 h, 8 lb/acre, about 11 days
Excerpt: as §5, §6, §7

Curled Dock [20] = test: as above; conditions: post-emergence, 264 h, 8 lb/acre, about 11 days
Excerpt: as §5, §6, §7

Chickweed [21] = test: as above; conditions: post-emergence, 264 h, 8 lb/acre, about 11 days
Excerpt: as §5, §6, §7

Cucumber [22] = test: as above; conditions: Cucumis sativus, post-emergence, 264 h, 8 lb/acre, about 11 days
Excerpt: as §5, §6, §7

Corn [23] = test: as above; conditions: Zea mays, post-emergence, 264 h, 8 lb/acre, about 11 days
Excerpt: as §5, §6, §7

Johnsongrass [24] = test: as above; conditions: Sorghum halepense, post-emergence, 264 h, 8 lb/acre, about 11 days
Excerpt: as §5, §6, §7

Yellow Rocket [25] = test: as above; conditions: post-emergence, 264 h, 8 lb/acre, about 11 days
Excerpt: as §5, §6, §7

Cheatgrass [26] = test: as above; conditions: Bromus tectorum, post-emergence, 264 h, 8 lb/acre, about 11 days
Excerpt: as §5, §6, §7

Pigweed [27] = test: as above; conditions: Amaranthus retroflexus, post-emergence, 264 h, 8 lb/acre, about 11 days
Excerpt: as §5, §6, §7

Lambsquarters [28] = test: as above; conditions: Chenopodium album, post-emergence, 264 h, 8 lb/acre, about 11 days
Excerpt: as §5, §6, §7

Alfalfa [29] = test: as above; conditions: Medicago sativa, post-emergence, 264 h, 8 lb/acre, about 11 days
Excerpt: as §5, §6, §7

Barnyard Grass [30] = test: as above; conditions: Echinochloa crus-galli, post-emergence, 264 h, 8 lb/acre, about 11 days
Excerpt: as §5, §6, §7

Wild Oats [31] = test: as above; conditions: Avena fatua, post-emergence, 264 h, 8 lb/acre, about 11 days
Excerpt: as §5, §6, §7

Crabgrass [32] = test: as above; conditions: Digitaria sanguinalis, post-emergence, 264 h, 8 lb/acre, about 11 days
Excerpt: as §5, §6, §7

Snapbeans [33] = test: as above; conditions: post-emergence, 264 h, 8 lb/acre, about 11 days
Excerpt: as §5, §6, §7

Velvetleaf [34] = test: as above; conditions: Abutilon theophrasti, post-emergence, 264 h, 8 lb/acre, about 11 days
Excerpt: as §5, §6, §7

O=c1[nH]c2cccnc2c(=O)n1Cc1ccccc1 [3-benzyl-pyrido[3,2-d]pyrimidine-[2,4(1H,3H)-dione]
pest or weed control at 17933.6 g/ha (Nutgrass [1]): 0% | pest or weed control at 17933.6 g/ha (Foxtail [2]): 90% | herbicidal activity/control (Curled Dock [3]; 16 pounds per acre): total preemergence activity | pest or weed control at 17933.6 g/ha (Curled Dock [3]): 100% | herbicidal activity/control (Chickweed [4]; 16 pounds per acre): total preemergence activity | pest or weed control at 17933.6 g/ha (Chickweed [4]): 100% | herbicidal activity/control (Cucumber [5]; 16 pounds per acre): no preemergence herbicidal activity | pest or weed control at 17933.6 g/ha (Cucumber [5]): 0% | herbicidal activity/control (Corn [6]; 16 pounds per acre): no preemergence herbicidal activity | plant injury at 17933.6 g/ha (Corn [6]): 10% | pest or weed control at 17933.6 g/ha (Johnsongrass [7]): 90% | pest or weed control at 17933.6 g/ha (Yellow Rocket [8]): 90% | herbicidal activity/control (Cheatgrass [9]; 16 pounds per acre): total preemergence activity | pest or weed control at 17933.6 g/ha (Cheatgrass [9]): 100% | herbicidal activity/control (Pigweed [10]; 16 pounds per acre): total preemergence activity | pest or weed control at 17933.6 g/ha (Pigweed [10]): 100% | herbicidal activity/control (Lambsquarters [11]; 16 pounds per acre): total preemergence activity | pest or weed control at 17933.6 g/ha (Lambsquarters [11]): 100% | herbicidal activity/control (Alfalfa [12]; 16 pounds per acre): total preemergence activity | pest or weed control at 17933.6 g/ha (Alfalfa [12]): 100% | pest or weed control at 17933.6 g/ha (Barnyard Grass [13]): 90% | pest or weed control at 17933.6 g/ha (Wild Oats [14]): 30% | herbicidal activity/control (Crabgrass [15]; 16 pounds per acre): total preemergence activity | pest or weed control at 17933.6 g/ha (Crabgrass [15]): 100% | herbicidal activity/control (Snapbeans [16]; 16 pounds per acre): no preemergence herbicidal activity | pest or weed control at 17933.6 g/ha (Snapbeans [16]): 10% | pest or weed control at 17933.6 g/ha (Velvetleaf [17]): 90% | pest or weed control at 8966.8 g/ha (Nutgrass [18]): 0% | pest or weed control at 8966.8 g/ha (Foxtail [19]): 0% | pest or weed control at 8966.8 g/ha (Curled Dock [20]): 0% | pest or weed control at 8966.8 g/ha (Chickweed [21]): 100% | pest or weed control at 8966.8 g/ha (Cucumber [22]): 10% | plant injury at 8966.8 g/ha (Corn [23]): 0% | pest or weed control at 8966.8 g/ha (Johnsongrass [24]): 0% | pest or weed control at 8966.8 g/ha (Yellow Rocket [25]): 70% | pest or weed control at 8966.8 g/ha (Cheatgrass [26]): 0% | pest or weed control at 8966.8 g/ha (Pigweed [27]): 100% | pest or weed control at 8966.8 g/ha (Lambsquarters [28]): 60% | pest or weed control at 8966.8 g/ha (Alfalfa [29]): 0% | pest or weed control at 8966.8 g/ha (Barnyard Grass [30]): 0% | pest or weed control at 8966.8 g/ha (Wild Oats [31]): 0% | pest or weed control at 8966.8 g/ha (Crabgrass [32]): 40% | pest or weed control at 8966.8 g/ha (Snapbeans [33]): 0% | pest or weed control at 8966.8 g/ha (Velvetleaf [34]): 30%

O=c1[nH]c2cccnc2c(=O)n1C1CCCCCCC1 [3-cyclooctyl-pyrido[3,2-d]pyrimidine-2,4(1H,3H)-dione]
pest or weed control at 17933.6 g/ha (Nutgrass [1]): 20% | pest or weed control at 17933.6 g/ha (Foxtail [2]): 100% | pest or weed control at 17933.6 g/ha (Curled Dock [3]): 100% | pest or weed control at 17933.6 g/ha (Chickweed [4]): 100% | pest or weed control at 17933.6 g/ha (Cucumber [5]): 90% | plant injury at 17933.6 g/ha (Corn [6]): 50% | pest or weed control at 17933.6 g/ha (Johnsongrass [7]): 100% | pest or weed control at 17933.6 g/ha (Yellow Rocket [8]): 100% | pest or weed control at 17933.6 g/ha (Cheatgrass [9]): 100% | pest or weed control at 17933.6 g/ha (Pigweed [10]): 100% | pest or weed control at 17933.6 g/ha (Lambsquarters [11]): 100% | pest or weed control at 17933.6 g/ha (Alfalfa [12]): 100% | pest or weed control at 17933.6 g/ha (Wild Oats [14]): 100% | pest or weed control at 17933.6 g/ha (Crabgrass [15]): 100% | pest or weed control at 17933.6 g/ha (Snapbeans [16]): 100% | pest or weed control at 17933.6 g/ha (Velvetleaf [17]): 100% | pest or weed control at 8966.8 g/ha (Nutgrass [18]): 40% | pest or weed control at 8966.8 g/ha (Foxtail [19]): 80% | pest or weed control at 8966.8 g/ha (Curled Dock [20]): 100% | pest or weed control at 8966.8 g/ha (Chickweed [21]): 100% | pest or weed control at 8966.8 g/ha (Cucumber [22]): 100% | plant injury at 8966.8 g/ha (Corn [23]): 0% | pest or weed control at 8966.8 g/ha (Johnsongrass [24]): 100% | pest or weed control at 8966.8 g/ha (Yellow Rocket [25]): 100% | pest or weed control at 8966.8 g/ha (Cheatgrass [26]): 30% | pest or weed control at 8966.8 g/ha (Pigweed [27]): 100% | pest or weed control at 8966.8 g/ha (Lambsquarters [28]): 100% | pest or weed control at 8966.8 g/ha (Alfalfa [29]): 60% | pest or weed control at 8966.8 g/ha (Barnyard Grass [30]): 90% | pest or weed control at 8966.8 g/ha (Wild Oats [31]): 40% | pest or weed control at 8966.8 g/ha (Crabgrass [32]): 100% | pest or weed control at 8966.8 g/ha (Snapbeans [33]): 90% | pest or weed control at 8966.8 g/ha (Velvetleaf [34]): 100%
